The assay has as its target T1, human CXCR3 (N-delta 4) (Homo sapiens, UniProt P49682).
T1 construct: CD8 leader; Flag tag; expressed in transfected cells; membranes used
T1 sequence (P49682 5-368 limits assumed): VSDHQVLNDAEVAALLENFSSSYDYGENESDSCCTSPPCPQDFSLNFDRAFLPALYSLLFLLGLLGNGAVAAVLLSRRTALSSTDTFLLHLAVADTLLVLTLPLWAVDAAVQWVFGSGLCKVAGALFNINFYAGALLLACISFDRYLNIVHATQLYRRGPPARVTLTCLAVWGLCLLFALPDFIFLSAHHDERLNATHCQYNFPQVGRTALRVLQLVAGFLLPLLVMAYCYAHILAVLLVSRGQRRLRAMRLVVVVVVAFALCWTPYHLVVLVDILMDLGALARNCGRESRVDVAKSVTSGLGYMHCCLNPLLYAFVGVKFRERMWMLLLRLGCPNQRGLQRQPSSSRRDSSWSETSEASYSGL
The assay is described as follows: Human CXCR3 (N-delta 4) scintillation proximity assay (SPA), [125I] IP-10 binding. The settings on record: IC50 rating; Ba/F3-hCXCR3 (N-delta 4) membranes, 25 pM [125I] IP-10. In a few lines:
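Membranes from mouse Ba/F3 pro-B cells stably expressing Flag-tagged human CXCR3 (N-delta 4) were coupled to SPA beads. IP-10 was added together with titrated compounds to start the reaction, and bound radioligand was read by scintillation proximity.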

By IC50 is commonly meant the concentration needed to halve the response being measured. Low values mean greater potency in that assay, high ones weaker potency in that assay. As to `O=C(NCc1ccc(Cl)cc1)c1cnc(N2CCN(C3CCN(Cc4ccc(F)c(F)c4)CC3)CC2)c(Cl)c1` [compound 157], the IC50 was in the range of 25 to 100 nM.

In turn, `CCNC(=O)c1cnc(N2CCN(C3CCN(Cc4ccc(Cl)cc4F)CC3)[C@@H](C)C2)c(Cl)c1` [compound 251] returned an IC50 of under 25 nM.

Turning to `CCNC(=O)c1cnc(N2CCN(C3CCN(Cc4ccc(Cl)cc4F)CC3)C(C3CC3)C2)c(Cl)c1` (stereo not drawn) [compound 249], the IC50 is under 25 nM.

As for `COc1ccc(CN2CCC(N3CCN(c4ncc(C(=O)NCc5ccc(C(F)(F)F)cc5)cc4Cl)CC3)CC2)cc1` [compound 42], the concentration for half-maximal inhibition (IC50) was over 100 nM.

Take `N#Cc1ccc(C(=O)N2CCC(N3CCN(c4ncc(C(=O)NCC5CCCCC5)cc4Br)CC3)CC2)cc1` [compound 193]: the IC50 lay in the range of 25 to 100 nM.

As for `N#Cc1ccc(C(=O)N2CCC(N3CCN(c4ncc(C(=O)NCc5ccc(Cl)cc5)cc4Cl)CC3)CC2)cc1` [compound 101], the concentration for half-maximal inhibition (IC50) was 25 to 100 nM.

`O=C(NCC1CCCCC1)c1cnc(N2CCN(C3CCN(Cc4ccc(Cl)cc4)CC3)CC2)c(Br)c1` [compound 194] returned an IC50 of 25 to 100 nM.

`N#Cc1ccc(CN2CCC(N3CCN(c4ncc(C(=O)NCc5ccc(F)cc5)cc4Cl)CC3)CC2)cc1` [compound 321] returned a half-inhibitory concentration (IC50) of 25 to 100 nM.

`CC[C@H]1CN(c2ncc(C(=O)NN)cc2Cl)CCN1C1CCN(Cc2ccc(Cl)cc2F)CC1` [compound 273] had a concentration for half-maximal inhibition (IC50) of 25 to 100 nM.

As to `O=C(NCc1ccc(C(F)(F)F)cc1)c1cnc(N2CCN(C3CCN(Cc4ccc(Cl)cc4)CC3)CC2)c(Br)c1` [compound 305], the IC50 was in the range of 25 to 100 nM.

`O=C(NCc1ccc(Cl)cc1Cl)c1cnc(N2CCN(C3CCN(Cc4ccc([N+](=O)[O-])cc4)CC3)CC2)c(Cl)c1` [compound 142] had an IC50 of 25 to 100 nM.

`O=C(NCc1ccc(Cl)c(Cl)c1)c1cnc(N2CCN(C3CCN(Cc4ccc(Cl)cc4)CC3)CC2)c(Cl)c1` [compound 286] yielded a half-inhibitory concentration (IC50) of 25 to 100 nM.

Compound `COc1ccc(CN2CCC(N3CCN(c4ncc(C(=O)NCc5ccc(F)cc5F)cc4Cl)CC3)CC2)cc1` [compound 56] had an IC50 of over 100 nM.

For `C[C@H]1CN(c2ncc(C(=O)Nc3ccc(F)c(F)c3)cc2Cl)CCN1C1CCN(Cc2ccc(Cl)cc2)CC1` [compound 261], the half-inhibitory concentration (IC50) is under 25 nM.

In turn, `CC[C@H]1CN(c2c(Cl)cc(C(=O)OC)c[n+]2[O-])CCN1C1CCN(Cc2ccc(Cl)cc2F)CC1` [compound 438] had a half-inhibitory concentration (IC50) of over 100 nM.

Take `CNC(=O)c1cnc(N2CCN(C3CCN([C@H]4CCc5cc(Cl)ccc54)CC3)[C@@H](C)C2)c(Cl)c1` [compound 278]: the IC50 was 25 to 100 nM.

`O=C(NCc1cccc(Cl)c1)c1cnc(N2CCN(C3CCN(Cc4ccc(Br)cc4)CC3)CC2)c(Cl)c1` [compound 43] had an IC50 of over 100 nM.

The compound `O=C(NCc1ccc(Cl)c(Cl)c1)c1cnc(N2CCN(C3CCN(Cc4ccc([N+](=O)[O-])cc4)CC3)CC2)c(Cl)c1` [compound 162] displayed an IC50 of under 25 nM.

In turn, `CC[C@H]1CN(c2ncc(C(=O)NC)cc2Cl)CCN1C1CCN(C(=O)c2ccc(C#N)cc2)CC1` [compound 303] registered a 50% inhibitory concentration (IC50) of 25 to 100 nM.

As for `CC[C@H]1CN(c2ncc(CNC(=O)NN)cc2Cl)CCN1C1CCN(Cc2ccc(Cl)cc2F)CC1` [compound 401], the IC50 was under 25 nM.

On to `O=C(NCc1ccc(F)c(F)c1)c1cnc(N2CCN(C3CCN(Cc4ccc(Cl)cc4)CC3)CC2)c(I)c1` [compound 182], for which the IC50 was under 25 nM.

`N#Cc1ccc(C(=O)N2CCC(N3CCN(c4ncc(C(=O)NCc5ccc(Cl)cc5F)cc4Cl)CC3)CC2)cc1` [compound 81] came in with an IC50 of over 100 nM.

The compound `O=C(NCc1ccc(F)c(F)c1)c1cnc(N2CCN(C3CCN(Cc4ccc(Cl)cc4Cl)CC3)CC2)c(Cl)c1` [compound 25] had an IC50 of over 100 nM.

The compound `COc1ccc(CN2CCC(N3CCN(c4ncc(C(=O)NCc5ccc(Cl)cc5Cl)cc4Cl)CC3)CC2)cc1` [compound 63] registered a 50% inhibitory concentration (IC50) of over 100 nM.

As for `C[C@H]1CN(C2CCN(Cc3ccc(Cl)cc3)CC2)CCN1c1ncc(C(=O)NCc2ccc(Cl)c(Cl)c2)cc1Cl` [compound 175], the IC50 was 25 to 100 nM.

Consider `C[C@@H]1CN(c2ncc(C(=O)NCc3ccc(F)c(F)c3)cc2Cl)CCN1C1CCN(Cc2ccc(Cl)cc2)CC1` [compound 152], for which the IC50 is 25 to 100 nM.

As to `CC[C@H]1CN(c2ncc(CNS(=O)(=O)C(F)(F)F)cc2Cl)CCN1C1CCN(Cc2ccc(Cl)cc2F)CC1` [compound 443], the IC50 was over 100 nM.

For the compound `CC[C@H]1CN(c2ncc(CNC3=NCCN3)cc2Cl)CCN1C1CCN(Cc2ccc(Cl)cc2F)CC1` [compound 431], the IC50 is 25 to 100 nM.

In turn, `CCNC(=O)c1cnc(N2CCN(C3CCN(C(=O)c4ccc(C#N)cc4)CC3)[C@@H](CC)C2)c(Cl)c1` [compound 269] gave a 50% inhibitory concentration (IC50) of 25 to 100 nM.

`CCOC(CNC(=N)c1cnc(N2CCN(C3CCN(C(=O)c4ccc(Cl)cc4)CC3)[C@@H](CC)C2)c(Cl)c1)OCC` [compound 453] displayed a half-inhibitory concentration (IC50) of over 100 nM.

Compound `O=C(NCCOc1ccccc1)c1cnc(N2CCN(C3CCN(Cc4ccc(Br)cc4F)CC3)CC2)c(Cl)c1` [compound 23] registered a concentration for half-maximal inhibition (IC50) of over 100 nM.

`O=C(NCc1ccc(F)cc1)c1cnc(N2CCN(C3CCN(Cc4ccc([N+](=O)[O-])cc4)CC3)CC2)c(Cl)c1` [compound 272] had an IC50 of 25 to 100 nM.

`CC[C@H]1CN(c2ncc(CNC(=O)NC3CCCCC3)cc2Cl)CCN1C1CCN(Cc2ccc(Cl)cc2F)CC1` [compound 390] showed a half-inhibitory concentration (IC50) of under 25 nM.

On to `O=C(NCCOc1ccccc1)c1cnc(N2CCN(C3CCN(Cc4ccc(Cl)cc4)CC3)CC2)c(Br)c1` [compound 283], for which the half-inhibitory concentration (IC50) lay in the range of 25 to 100 nM.

Compound `O=C(NCCOc1ccccc1)c1cnc(N2CCN(C3CCN(Cc4ccc(OC(F)(F)F)cc4)CC3)CC2)c(Cl)c1` [compound 169] registered an IC50 of over 100 nM.

`O=C(NCc1ccc(Cl)cc1)c1cnc(N2CCN(C3CCN(Cc4ccc(Cl)cc4)CC3)CC2)c(Cl)c1` [compound 288] yielded a 50% inhibitory concentration (IC50) of 25 to 100 nM.

Consider `N#Cc1ccc(CN2CCC(N3CCN(c4ncc(C(=O)NCc5cccc(Cl)c5)cc4Cl)CC3)CC2)cc1` [compound 47], for which the half-inhibitory concentration (IC50) is over 100 nM.

The compound `O=C(NC1CCCCC1)c1cnc(N2CCN(C3CCN(Cc4ccc(Cl)cc4)CC3)CC2)c(Cl)c1` [compound 191] returned an IC50 of over 100 nM.

`C[C@H]1CN(c2ncc(C(=O)NCc3ccc(F)c(F)c3)cc2Br)CCN1C1CCN(Cc2ccc(Cl)cc2)CC1` [compound 222] registered an IC50 of under 25 nM.

On to `C=CCNc1c(C(N)=O)cnc(N2CCN(C3CCN(Cc4ccc(Cl)cc4F)CC3)[C@@H](CC)C2)c1Cl` [compound 357], for which the IC50 was over 100 nM.

Regarding `CC[C@H]1CN(c2c(Cl)cc(C(=O)OC)c[n+]2[O-])CCN1C1CCN(Cc2ccc(Cl)cc2F)CC1` [compound 458], the IC50 lay within 25 to 100 nM.

The compound `O=C(NCc1cc(Cl)cc(Cl)c1)c1cnc(N2CCN(C3CCN(Cc4ccc(F)cc4)CC3)CC2)c(Cl)c1` [compound 77] yielded a half-maximal inhibitory concentration (IC50) of over 100 nM.

Compound `CC/N=C(/NCC)c1cnc(N2CCN(C3CCN(Cc4ccc(Cl)cc4)CC3)[C@@H](C)C2)c(Cl)c1` [compound 439] registered a half-inhibitory concentration (IC50) of over 100 nM.

`O=C(NCc1ccc(Cl)c(Cl)c1)c1cnc(N2CCN(C3CCN(Cc4ccc(Br)cc4F)CC3)CC2)c(Cl)c1` [compound 65] yielded an IC50 of over 100 nM.

Compound `O=C(NCc1ccc(Cl)c(Cl)c1)c1cnc(N2CCN(C3CCN(Cc4ccc(Cl)c(F)c4)CC3)CC2)c(Cl)c1` [compound 115] returned an IC50 of 25 to 100 nM.
